Test results from patent publication US20180214428A1, “3-(1H-INDOL-2-YL)-1H-PYRAZOLO[3,4-B]PYRIDINES AND THERAPEUTIC USES THEREOF” (Samumed, LLC, priority 2015, published 2018).

Test system: primary human fibroblasts derived from IPF patients (LL29 cells)
Assay: Inhibition of the fibrotic process: αSMA staining in TGF-β1 treated LL29 fibroblasts
Type: cell-based
Conditions: Homo sapiens, Fibroblast; for EC50: 96 h, TGF-β1 20 ng/mL, 4 days, % αSMA positive cells; for inhibition at 10 µM: given for EC50 of >10 μM, TGF-β1, αSMA, read-out: percent inhibition at 10 μM
Text: Representative compounds were screened using primary human fibroblasts (derived from IPF patients) treated with TGF-β1 to determine their ability to inhibit the fibrotic process.
Primary human fibroblasts derived from IPF patients (LL29 cells) [^1Xiaoqiu Liu, et. al., “Fibrotic Lung Fibroblasts Show Blunted Inhibition by cAMP Due to Deficient cAMP Response Element-Binding Protein Phosphorylation”, Journal of Pharmacology and Experimental Therapeutics (2005), 315(2), 678-687; ^2Watts, K. L., et. al., “RhoA signaling modulates cyclin D1 expression in human lung fibroblasts; implications for idiopathic pulmonary fibrosis”, Respiratory Research (2006), 7(1), 88] were obtained from American Type Culture Collection (ATCC) and expanded in F12 medium supplemented with 15% Fetal Bovine Serum and Penicillin/Streptomycin.
Each compound was dissolved in DMSO as a 10 mM stock and used to prepare compound source plates. Serial dilution (1:2, 11-point dose-response curves from 10 μM to […]) and compound transfer was performed using the ECHO 550 (Labcyte, Sunnyvale, Calif.) into 384-well clear bottom assay plates (Greiner Bio-One) with appropriate DMSO backfill for a final DMSO concentration of 0.1%. LL29 cells are plated at 1,500 cells/well in 80 μL/well F12 medium supplemented with 1% Fetal Bovine Serum. One hour after addition of the cells, TGF-01 (Peprotech; 20 ng/mL) was added to the plates to induce fibrosis (ref. 1 and 2 above). Wells treated with TGF-β1 and containing DMSO were used as controls. Cells were incubated at 37° C. and 5% CO2 for 4 days. Following incubation for 4 days, SYTOX green nucleic acid stain (Life Technologies [Thermo Fisher Scientific]) was added to the wells at a final concentration of 1 μM and incubated at room temperature for 30 min. Cells were then fixed using 4% formaldehyde (Electron Microscopy Sciences), washed 3 times with PBS followed by blocking and permeabilization using 3% Bovine Serum Albumin (BSA; Sigma) and 0.3% Triton X-100 (Sigma) in PBS. Cells were then stained with antibody specific to α-smooth muscle actin (aSMA; Abcam) (ref. 1 and 2 above) in 3% Bovine Serum Albumin (BSA; Sigma) and 0.3% Triton X-100 (Sigma) in PBS, and incubated overnight at 4° C. Cells were then washed 3 times with PBS, followed by incubation with Alexa Flor-647 conjugated secondary antibody (Life Technologies [Thermo Fisher Scientific]) and DAPI at room temperature for 1 hour. Cells were then washed 3 times with PBS and plates were sealed for imaging. αSMA staining was imaged by excitation at 630 nm and emission at 665 nm and quantified using the Compartmental Analysis program on the CellInsight CX5 (Thermo Scientific). Dead or apoptotic cells were excluded from analysis based on positive SYTOX green staining. % of total cells positive for aSMA were counted in each well and normalized to the average of 11 wells treated with TGF-01 on the same plate using Dotmatics' Studies Software. The normalized averages (fold change over untreated) of 3 replicate wells for each compound concentration were used to create dose-responses curves and EC50 values were calculated using non-linear regression curve fit in the Dotmatics' Studies Software. For EC50 of >10 μM, the percent inhibition at 10 μM is provided.

Structure (SMILES): Fc1cccc(-c2cccc3[nH]c(-c4n[nH]c5ncc(-c6cccnc6)cc45)cc23)c1 [Compound 2, 3-(4-(3-Fluorophenyl)-1H-indol-2-yl)-5-(pyridin-3-yl)-1H-pyrazolo[3,4-b]pyridine]
- EC50: 1.43 µM

Structure (SMILES): CCCC(=O)Nc1cncc(-c2cnc3[nH]nc(-c4cc5c(-c6cccc(F)c6)cccc5[nH]4)c3c2)c1 [Compound 14, N-(5-(3-(4-(3-Fluorophenyl)-1H-indol-2-yl)-1H-pyrazolo[3,4-b]pyridin-5-yl)pyridin-3-yl)butyramide]
- EC50: > 10 µM

Structure (SMILES): Fc1cccc(-c2cccc3[nH]c(-c4n[nH]c5ncc(-c6ccncc6)cc45)cc23)c1 [Compound 15, 3-(4-(3-Fluorophenyl)-1H-indol-2-yl)-5-(pyridin-4-yl)-1H-pyrazolo[3,4-b]pyridine]
- EC50: 1.7 µM

Structure (SMILES): O=C(Nc1cncc(-c2cnc3[nH]nc(-c4cc5c(-c6cccc(F)c6)cccc5[nH]4)c3c2)c1)C1CCCCC1 [Compound 19, N-(5-(3-(4-(3-Fluorophenyl)-1H-indol-2-yl)-1H-pyrazolo[3,4-b]pyridin-5-yl)pyridin-3-yl)cyclohexanecarboxamide]
- EC50: > 10 µM
- inhibition at 10 µM: 28.9%

Structure (SMILES): Cc1ccncc1-c1cnc2[nH]nc(-c3cc4c(-c5ccc(F)cc5)cccc4[nH]3)c2c1 [Compound 27, 3-(4-(4-Fluorophenyl)-1H-indol-2-yl)-5-(4-methylpyridin-3-yl)-1H-pyrazolo[3,4-b]pyridine]
- EC50: 1.61 µM

Structure (SMILES): CC(C)(C)C(=O)Nc1cncc(-c2cnc3[nH]nc(-c4cc5c(-c6ccc(F)cc6)cccc5[nH]4)c3c2)c1 [Compound 30, N-(5-(3-(4-(4-Fluorophenyl)-1H-indol-2-yl)-1H-pyrazolo[3,4-b]pyridin-5-yl)pyridin-3-yl)pivalamide]
- EC50: 4.16 µM

Structure (SMILES): O=C(Nc1cncc(-c2cnc3[nH]nc(-c4cc5c(-c6ccc(F)cc6)cccc5[nH]4)c3c2)c1)c1ccccc1 [Compound 32, N-(5-(3-(4-(4-Fluorophenyl)-1H-indol-2-yl)-1H-pyrazolo[3,4-b]pyridin-5-yl)pyridin-3-yl)benzamide]
- EC50: 4.95 µM

Structure (SMILES): O=C(Nc1cncc(-c2cnc3[nH]nc(-c4cc5c(-c6ccc(F)cc6)cccc5[nH]4)c3c2)c1)C1CCC1 [Compound 41, N-(5-(3-(4-(4-Fluorophenyl)-1H-indol-2-yl)-1H-pyrazolo[3,4-b]pyridin-5-yl)pyridin-3-yl)cyclobutanecarboxamide]
- EC50: 1.16 µM

Structure (SMILES): CC(C)(C)CC(=O)Nc1cncc(-c2cnc3[nH]nc(-c4cc5c(-c6ccccc6F)cccc5[nH]4)c3c2)c1 [Compound 61, N-(5-(3-(4-(2-Fluorophenyl)-1H-indol-2-yl)-1H-pyrazolo[3,4-b]pyridin-5-yl)pyridin-3-yl)-3,3-dimethylbutanamide]
- EC50: 4.97 µM

Structure (SMILES): O=C(Nc1cncc(-c2cnc3[nH]nc(-c4cc5c(-c6ccccc6F)cccc5[nH]4)c3c2)c1)C1CCCC1 [Compound 66, N-(5-(3-(4-(2-Fluorophenyl)-1H-indol-2-yl)-1H-pyrazolo[3,4-b]pyridin-5-yl)pyridin-3-yl)cyclopentanecarboxamide]
- EC50: 6.53 µM

Structure (SMILES): Cc1ccncc1-c1cnc2[nH]nc(-c3cc4c(-c5ccncc5)cccc4[nH]3)c2c1 [Compound 99, 5-(4-Methylpyridin-3-yl)-3-(4-(pyridin-4-yl)-1H-indol-2-yl)-1H-pyrazolo[3,4-b]pyridine]
- EC50: 2.61 µM

Structure (SMILES): c1cc(-c2ccncc2)c2cc(-c3n[nH]c4ncc(-c5ccncc5)cc34)[nH]c2c1 [Compound 111, 5-(Pyridin-4-yl)-3-(4-(pyridin-4-yl)-1H-indol-2-yl)-1H-pyrazolo[3,4-b]pyridine]
- EC50: 2.77 µM

Structure (SMILES): O=C(Nc1cncc(-c2cnc3[nH]nc(-c4cc5c(-c6ccncc6)cccc5[nH]4)c3c2)c1)C1CCCCC1 [Compound 115, N-(5-(3-(4-(Pyridin-4-yl)-1H-indol-2-yl)-1H-pyrazolo[3,4-b]pyridin-5-yl)pyridin-3-yl)cyclohexanecarboxamide]
- EC50: 4.98 µM

Structure (SMILES): c1ccc(CNCc2cncc(-c3cnc4[nH]nc(-c5cc6c(-c7ccncc7)cccc6[nH]5)c4c3)c2)cc1 [Compound 116, N-Benzyl-1-(5-(3-(4-(pyridin-4-yl)-1H-indol-2-yl)-1H-pyrazolo[3,4-b]pyridin-5-yl)pyridin-3-yl)methanamine]
- EC50: 2.53 µM

Structure (SMILES): c1ccc(-c2cnc3[nH]nc(-c4cc5c(-c6ccncc6)cccc5[nH]4)c3c2)nc1 [Compound 120, 5-(Pyridin-2-yl)-3-(4-(pyridin-4-yl)-1H-indol-2-yl)-1H-pyrazolo[3,4-b]pyridine]
- EC50: 0.642 µM

Structure (SMILES): O=C(Nc1cncc(-c2cnc3[nH]nc(-c4cc5c(N6CCCCC6)cccc5[nH]4)c3c2)c1)c1ccccc1 [Compound 155, N-(5-(3-(4-(Piperidin-1-yl)-1H-indol-2-yl)-1H-pyrazolo[3,4-b]pyridin-5-yl)pyridin-3-yl)benzamide]
- EC50: 5.17 µM

Structure (SMILES): CCCCC(=O)Nc1cncc(-c2cnc3[nH]nc(-c4cc5c(N6CCCCC6)cccc5[nH]4)c3c2)c1 [Compound 163, N-(5-(3-(4-(Piperidin-1-yl)-1H-indol-2-yl)-1H-pyrazolo[3,4-b]pyridin-5-yl)pyridin-3-yl)pentanamide]
- EC50: 8.11 µM

Structure (SMILES): CC(C)CC(=O)Nc1cncc(-c2cnc3[nH]nc(-c4cc5c(N6CCN(C)CC6)cccc5[nH]4)c3c2)c1 [Compound 202, 3-Methyl-N-(5-(3-(4-(4-methylpiperazin-1-yl)-1H-indol-2-yl)-1H-pyrazolo[3,4-b]pyridin-5-yl)pyridin-3-yl)butanamide]
- EC50: 2.31 µM

Structure (SMILES): CC(C)C(=O)Nc1cncc(-c2cnc3[nH]nc(-c4cc5c(N6CCN(C)CC6)cccc5[nH]4)c3c2)c1 [Compound 209, N-(5-(3-(4-(4-Methylpiperazin-1-yl)-1H-indol-2-yl)-1H-pyrazolo[3,4-b]pyridin-5-yl)pyridin-3-yl)isobutyramide]
- EC50: 5.62 µM

Structure (SMILES): CN1CCN(c2cccc3[nH]c(-c4n[nH]c5ncc(-c6ccncc6)cc45)cc23)CC1 [Compound 218, 3-(4-(4-Methylpiperazin-1-yl)-1H-indol-2-yl)-5-(pyridin-4-yl)-1H-pyrazolo[3,4-b]pyridine]
- EC50: 3.81 µM

Structure (SMILES): CN1CCN(c2cccc3[nH]c(-c4n[nH]c5ncc(-c6cncnc6)cc45)cc23)CC1 [Compound 227, 3-(4-(4-Methylpiperazin-1-yl)-1H-indol-2-yl)-5-(pyrimidin-5-yl)-1H-pyrazolo[3,4-b]pyridine]
- EC50: > 10 µM
- inhibition at 10 µM: 47.8%

Structure (SMILES): c1cncc(-c2cnc3[nH]nc(-c4cc5ccccc5[nH]4)c3c2)c1 [Compound 231, 3-(1H-Indol-2-yl)-5-(pyridin-3-yl)-1H-pyrazolo[3,4-b]pyridine]
- EC50: 8.69 µM

Structure (SMILES): CC(C)(C)CC(=O)Nc1cncc(-c2cnc3[nH]nc(-c4cc5ccccc5[nH]4)c3c2)c1 [Compound 242, N-(5-(3-(1H-Indol-2-yl)-1H-pyrazolo[3,4-b]pyridin-5-yl)pyridin-3-yl)-3,3-dimethylbutanamide]
- EC50: > 10 µM
- inhibition at 10 µM: 0%

Structure (SMILES): O=C(Nc1cncc(-c2cnc3[nH]nc(-c4cc5ccccc5[nH]4)c3c2)c1)C1CCCCC1 [Compound 249, N-(5-(3-(1H-Indol-2-yl)-1H-pyrazolo[3,4-b]pyridin-5-yl)pyridin-3-yl) cyclohexanecarboxamide]
- EC50: > 10 µM
- inhibition at 10 µM: 0%

Structure (SMILES): c1ccc(CNCc2cncc(-c3cnc4[nH]nc(-c5cc6ccccc6[nH]5)c4c3)c2)cc1 [Compound 250, 1-(5-(3-(1H-Indol-2-yl)-1H-pyrazolo[3,4-b]pyridin-5-yl)pyridin-3-yl)-N-benzylmethanamine]
- EC50: 2.95 µM

Structure (SMILES): CC(C)(C)C(=O)Nc1cncc(-c2cnc3[nH]nc(-c4cc5c(-c6ccoc6)cccc5[nH]4)c3c2)c1 [Compound 290, N-(5-(3-(4-(Furan-3-yl)-1H-indol-2-yl)-1H-pyrazolo[3,4-b]pyridin-5-yl)pyridin-3-yl)pivalamide]
- EC50: > 10 µM
- inhibition at 10 µM: 43.3%

Structure (SMILES): Cc1ccncc1-c1cnc2[nH]nc(-c3cc4c(-c5cc(F)cc(CNS(C)(=O)=O)c5)cccc4[nH]3)c2c1 [Compound 455, N-(3-Fluoro-5-(2-(5-(4-methylpyridin-3-yl)-1H-pyrazolo[3,4-b]pyridin-3-yl)-1H-indol-4-yl)benzyl)methanesulfonamide]
- EC50: > 10 µM
- inhibition at 10 µM: 43.9%
